Literature values as cited in patent US20090062244A1, “PHARMACEUTICAL COMPOSITION” (priority 2007, published 2009).

Conditions: room temperature

## O=C(OOC(=O)c1ccccc1)c1ccccc1 [benzoyl peroxide]
  Solubility in 95% alcohol compared with absolute alcohol: several times lower
